Laboratory results: the supplement of paper PMC10307832

Experiments:
Experiment in all cases: relative viability (nuclei count vs DMSO), 5 days (fraction); higher = more cells survive
KIN001-266 + Crizotinib = compound: CCN1CCC(CC1)N2C=C(N=N2)CNC3=CC4=C(C(=CN=C4C(=C3)Cl)C#N)NC5=CC(=C(C=C5)F)Cl [KIN001-266] + C[C@@H](Oc1cc(-c2cnn(C3CCNCC3)c2)cnc1N)c1c(Cl)ccc(F)c1Cl [Crizotinib] (partner 1 µM)
Method in brief: (§1)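 Five library-drug doses in √10 steps were combined with a fixed anchor-drug dose, or a single drug was given alone, by pin tool to lung cancer cell lines in 1536-well plates the day after seeding. Nuclei were stained and counted after 5 days. Relative viability is the nuclei count in treated wells over that in vehicle wells, taken as the median of duplicate plates.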

KIN001-266 + Phenformin = compound: CCN1CCC(CC1)N2C=C(N=N2)CNC3=CC4=C(C(=CN=C4C(=C3)Cl)C#N)NC5=CC(=C(C=C5)F)Cl [KIN001-266] + N=C(N)NC(=N)NCCc1ccccc1 [Phenformin] (partner 250 µM)
Method in brief: as §1

KIN001-266 + Navitoclax = compound: CCN1CCC(CC1)N2C=C(N=N2)CNC3=CC4=C(C(=CN=C4C(=C3)Cl)C#N)NC5=CC(=C(C=C5)F)Cl [KIN001-266] + CC1(C)CCC(c2ccc(Cl)cc2)=C(CN2CCN(c3ccc(C(=O)NS(=O)(=O)c4ccc(N[C@H](CCN5CCOCC5)CSc5ccccc5)c(S(=O)(=O)C(F)(F)F)c4)cc3)CC2)C1 [Navitoclax] (partner 0.5 µM)
Method in brief: as §1

KIN001-266 + Decitabine = compound: CCN1CCC(CC1)N2C=C(N=N2)CNC3=CC4=C(C(=CN=C4C(=C3)Cl)C#N)NC5=CC(=C(C=C5)F)Cl [KIN001-266] + Nc1ncn([C@H]2C[C@H](O)[C@@H](CO)O2)c(=O)n1 [Decitabine] (partner 2 µM)
Method in brief: as §1

Cell Line	relative viability (KIN001-266 + Crizotinib; first compound 0.08 µM)	relative viability (KIN001-266 + Crizotinib; first compound 0.253 µM)	relative viability (KIN001-266 + Crizotinib; first compound 0.8 µM)	relative viability (KIN001-266 + Crizotinib; first compound 2.53 µM)	relative viability (KIN001-266 + Crizotinib; first compound 8 µM)	relative viability (KIN001-266 + Phenformin; first compound 0.08 µM)	relative viability (KIN001-266 + Phenformin; first compound 0.253 µM)	relative viability (KIN001-266 + Phenformin; first compound 0.8 µM)	relative viability (KIN001-266 + Phenformin; first compound 2.53 µM)	relative viability (KIN001-266 + Phenformin; first compound 8 µM)	relative viability (KIN001-266 + Navitoclax; first compound 0.08 µM)	relative viability (KIN001-266 + Navitoclax; first compound 0.253 µM)	relative viability (KIN001-266 + Navitoclax; first compound 0.8 µM)	relative viability (KIN001-266 + Navitoclax; first compound 2.53 µM)	relative viability (KIN001-266 + Navitoclax; first compound 8 µM)	relative viability (KIN001-266 + Decitabine; first compound 0.08 µM)	relative viability (KIN001-266 + Decitabine; first compound 0.253 µM)	relative viability (KIN001-266 + Decitabine; first compound 0.8 µM)	relative viability (KIN001-266 + Decitabine; first compound 2.53 µM)	relative viability (KIN001-266 + Decitabine; first compound 8 µM)
201T	1.05	0.997	1.02	1.03	1.03	0.449	0.45	0.386	0.457	0.434	1.18	1.23	1.23	1.19	1.21	0.848	0.885	0.868	0.78	0.842
A549	0.771	0.733	0.83	0.739	0.693	0.22	0.178	0.131	0.14	0.14	1.26	1.17	1.27	1.3	1.2	0.401	0.207	0.24	0.35	0.223
A-427	0.905	0.701	0.776	0.746	0.636	0.357	0.307	0.289	0.275	0.247	0.973	0.991	0.978	0.983	0.953	0.616	0.566	0.521	0.508	0.535
ABC-1	1.29	1.31	1.26	1.04	0.435	0.255	0.241	0.283	0.251	0.312	–	–	–	–	–	1.19	1.18	1.07	1.09	0.855
BEN	0.756	0.815	0.948	0.811	1.04	0.262	0.262	0.275	0.259	0.231	0.064	0.0577	0.0627	0.0713	0.0844	0.975	0.696	0.754	0.623	0.752
CAL-12T	0.562	0.565	0.693	0.589	0.686	0.571	0.545	0.515	0.568	0.534	1.47	1.31	1.17	1.33	1.15	–	–	–	–	–
COR-L23	0.751	0.832	0.642	0.561	0.416	0.439	0.452	0.452	0.455	0.368	0.99	1.03	1.01	1.01	0.54	0.487	0.497	0.466	0.464	0.389
COR-L 105	0.817	0.962	0.82	0.969	0.726	0.48	0.641	0.534	0.641	0.431	0.725	0.681	0.805	0.946	0.817	0.584	0.661	0.641	0.725	0.677
Calu-6	0.768	0.763	0.825	0.81	0.595	–	–	–	–	–	0.868	0.877	0.859	0.64	0.437	–	–	–	–	–
ChaGo-K-1	1.09	1.12	–	1.09	0.982	0.508	0.505	0.473	0.48	0.454	1.27	1.12	–	1.1	1.14	0.502	0.517	0.508	0.506	0.38
EBC-1	0.183	0.205	0.205	0.203	0.185	–	–	–	–	–	0.398	0.413	0.409	0.359	0.217	–	–	–	–	–
EKVX	0.893	0.933	0.894	0.899	0.894	0.234	0.237	0.2	0.243	0.225	1.08	0.822	0.925	0.975	0.876	0.364	0.422	0.368	0.364	0.358
EMC-BAC-2	0.826	0.797	0.758	0.751	0.794	0.56	0.516	0.482	0.54	0.475	1.15	1.1	1.08	1.16	1.22	1.04	1.04	0.965	0.984	0.988
EPLC-272H	0.939	0.862	0.752	0.943	0.656	0.334	0.317	0.274	0.234	0.239	1.16	1.42	0.966	1.11	0.763	0.382	0.404	0.338	0.344	0.319
H3255	0.883	0.874	0.777	0.811	0.71	0.356	0.373	0.353	0.353	0.345	0.689	0.566	0.494	0.482	0.615	0.632	0.557	0.587	0.618	0.713
HARA	1.07	1.24	0.894	0.967	0.782	0.455	0.483	0.433	0.457	0.295	1.17	1.03	1.14	1.11	1.03	0.416	0.616	0.635	0.57	0.439
HCC-15	0.778	0.821	0.738	0.626	0.565	0.48	0.472	0.421	0.43	0.34	0.722	0.676	0.624	0.553	0.411	0.679	0.691	0.539	0.497	0.488

Cell Line	relative viability (KIN001-266 + Crizotinib; first compound 0.08 µM)	relative viability (KIN001-266 + Crizotinib; first compound 0.253 µM)	relative viability (KIN001-266 + Crizotinib; first compound 0.8 µM)	relative viability (KIN001-266 + Crizotinib; first compound 2.53 µM)	relative viability (KIN001-266 + Crizotinib; first compound 8 µM)	relative viability (KIN001-266 + Phenformin; first compound 0.08 µM)	relative viability (KIN001-266 + Phenformin; first compound 0.253 µM)	relative viability (KIN001-266 + Phenformin; first compound 0.8 µM)	relative viability (KIN001-266 + Phenformin; first compound 2.53 µM)	relative viability (KIN001-266 + Phenformin; first compound 8 µM)	relative viability (KIN001-266 + Navitoclax; first compound 0.08 µM)	relative viability (KIN001-266 + Navitoclax; first compound 0.253 µM)	relative viability (KIN001-266 + Navitoclax; first compound 0.8 µM)	relative viability (KIN001-266 + Navitoclax; first compound 2.53 µM)	relative viability (KIN001-266 + Navitoclax; first compound 8 µM)	relative viability (KIN001-266 + Decitabine; first compound 0.08 µM)	relative viability (KIN001-266 + Decitabine; first compound 0.253 µM)	relative viability (KIN001-266 + Decitabine; first compound 0.8 µM)	relative viability (KIN001-266 + Decitabine; first compound 2.53 µM)	relative viability (KIN001-266 + Decitabine; first compound 8 µM)
HCC-44	0.812	0.785	0.754	0.797	0.743	0.229	0.185	0.197	0.26	0.3	1.03	1.08	0.946	1.06	1.03	0.977	0.964	1.01	0.847	0.99
HCC-78	0.324	0.357	0.293	0.39	0.381	0.714	0.664	–	0.656	0.806	0.812	0.807	0.758	0.88	0.775	0.813	0.684	0.675	0.759	0.715
IA-LM	0.885	0.748	0.693	0.753	0.585	–	–	–	–	–	0.948	0.619	0.731	0.935	0.561	–	–	–	–	–
LCLC-103H	1.05	1.06	1.01	1.02	0.927	0.389	0.28	0.285	0.361	0.332	–	–	–	–	–	0.702	0.742	0.636	0.689	0.706
NCI-H358	0.537	0.794	0.656	0.454	0.268	0.361	0.367	0.343	0.277	0.251	–	–	–	–	–	0.209	0.219	0.197	0.212	0.173
NCI-H522	–	–	–	–	–	0.656	0.641	0.653	0.629	0.591	–	–	–	–	–	0.651	0.609	0.777	0.702	0.678
NCI-H650	0.703	0.752	0.741	0.797	0.71	0.499	0.503	0.495	0.463	0.507	–	–	–	–	–	0.346	0.337	0.309	0.319	0.306
NCI-H661	1.1	0.959	–	–	0.887	0.297	0.278	0.284	0.263	0.258	–	–	–	–	–	0.628	0.554	0.506	0.509	0.504
NCI-H1299	0.946	0.921	0.941	0.87	0.817	–	–	–	–	–	1.04	1.04	0.995	1.01	0.897	–	–	–	–	–
NCI-H1395	–	–	–	–	–	0.453	0.421	0.503	0.417	0.442	1.15	1.26	1.25	1.1	0.938	0.731	0.687	0.75	0.687	0.758
NCI-H1563	0.877	0.799	0.95	0.852	0.879	0.663	0.694	0.669	0.583	0.62	–	–	–	–	–	–	–	–	–	–
NCI-H1648	–	–	–	–	–	–	–	–	–	–	–	–	–	–	–	0.487	0.497	0.501	0.507	0.517
NCI-H1703	0.965	0.675	0.63	0.457	0.371	–	–	–	–	–	0.987	1.08	1.13	0.875	0.632	–	–	–	–	–
NCI-H1793	–	–	–	–	–	0.418	0.324	0.25	0.352	0.251	0.516	0.491	0.401	0.388	0.429	0.574	0.463	–	0.476	0.364
NCI-H2228	0.583	0.435	0.565	0.493	0.471	0.392	0.282	0.322	0.296	0.281	0.738	0.937	1.4	0.851	0.514	–	–	–	–	–
NCI-H2342	–	–	–	–	–	0.638	0.572	0.537	0.531	0.642	–	–	–	–	–	0.693	0.762	0.662	0.872	0.817
SW 900	–	–	–	–	–	0.617	0.564	0.537	0.564	0.357	–	–	–	–	–	0.733	0.448	0.463	0.427	0.343
